From PubChem BioAssay (NCI)
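Grown in 96-well plates, cells were treated for 48 hours with each compound at five concentrations. Insufficient inhibition: endpoint recorded as highest concentration tested. GI50: concentration for 50% inhibition of growth. Definition used: TGI = concentration required for complete inhibition of growth.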

Assays:
Assay in all cases: DTP human tumour cell line panel, 48 h
HCT-116 colon = tested on: HCT-116 colon
CCRF-CEM leukemia = tested on: CCRF-CEM leukemia
A549 NSCLC = tested on: A549 NSCLC
SK-MEL-5 melanoma = tested on: SK-MEL-5 melanoma
IGROV1 ovarian = tested on: IGROV1 ovarian
UO-31 renal = tested on: UO-31 renal
NCI-H522 lung = tested on: NCI-H522 lung
MDA-MB-231 breast = tested on: MDA-MB-231 breast
K-562 leukemia = tested on: K-562 leukemia
T-47D breast = tested on: T-47D breast
SW-620 colon = tested on: SW-620 colon
SN12C renal = tested on: SN12C renal
OVCAR-4 ovarian = tested on: OVCAR-4 ovarian
SK-MEL-28 melanoma = tested on: SK-MEL-28 melanoma
RXF 393 renal = tested on: RXF 393 renal
RPMI-8226 leukemia = tested on: RPMI-8226 leukemia
SR leukemia = tested on: SR leukemia
SNB-75 CNS = tested on: SNB-75 CNS
HOP-62 NSCLC = tested on: HOP-62 NSCLC
MALME-3M melanoma = tested on: MALME-3M melanoma
OVCAR-5 ovarian = tested on: OVCAR-5 ovarian
NCI-H460 lung = tested on: NCI-H460 lung
NCI-H23 lung = tested on: NCI-H23 lung
PC-3 prostate = tested on: PC-3 prostate
HT29 colon = tested on: HT29 colon
MOLT-4 leukemia = tested on: MOLT-4 leukemia
M14 melanoma = tested on: M14 melanoma
MCF7 breast = tested on: MCF7 breast
SK-MEL-2 melanoma = tested on: SK-MEL-2 melanoma
786-0 renal = tested on: 786-0 renal
A498 renal = tested on: A498 renal
ACHN renal = tested on: ACHN renal
DU-145 prostate = tested on: DU-145 prostate
HS 578T breast = tested on: HS 578T breast
HCT-15 colon = tested on: HCT-15 colon
BT-549 breast = tested on: BT-549 breast
SF-268 CNS = tested on: SF-268 CNS
OVCAR-8 ovarian = tested on: OVCAR-8 ovarian
U251 CNS = tested on: U251 CNS
HOP-92 NSCLC = tested on: HOP-92 NSCLC
SNB-19 CNS = tested on: SNB-19 CNS
HCC-2998 colon = tested on: HCC-2998 colon
LOX IMVI melanoma = tested on: LOX IMVI melanoma
EKVX NSCLC = tested on: EKVX NSCLC
OVCAR-3 ovarian = tested on: OVCAR-3 ovarian
TK-10 renal = tested on: TK-10 renal
COLO 205 colon = tested on: COLO 205 colon
HL-60(TB) leukemia = tested on: HL-60(TB) leukemia
SK-OV-3 ovarian = tested on: SK-OV-3 ovarian
NCI/ADR-RES ovarian = tested on: NCI/ADR-RES ovarian
SF-539 CNS = tested on: SF-539 CNS
KM12 colon = tested on: KM12 colon
UACC-257 melanoma = tested on: UACC-257 melanoma
NCI-H226 lung = tested on: NCI-H226 lung
CAKI-1 renal = tested on: CAKI-1 renal
SF-295 CNS = tested on: SF-295 CNS
UACC-62 melanoma = tested on: UACC-62 melanoma
MDA-MB-435 = tested on: MDA-MB-435

Compound CCCC(=O)OCC1OC(n2cnc3c(=S)nc(N)[nH]c32)C(OC(=O)CCC)C1OC(=O)CCC (centres undefined) has a GI50 (HCT-116 colon) of 2.72 µM, a TGI (HCT-116 colon) of 19.8 µM and a GI50 (CCRF-CEM leukemia) of 2.26 µM. It also gave a TGI (CCRF-CEM leukemia) greater than 27.6 µM, a GI50 (A549 NSCLC) of 25.2 µM and a TGI (A549 NSCLC) greater than 100 µM. It also gave a GI50 (SK-MEL-5 melanoma) of 6.43 µM, a TGI (SK-MEL-5 melanoma) of 19.5 µM and a GI50 (IGROV1 ovarian) of 5.93 µM. The TGI (IGROV1 ovarian) was 45.8 µM, the GI50 (UO-31 renal) was 3.99 µM and the TGI (UO-31 renal) was greater than 95.5 µM. The GI50 (NCI-H522 lung) was 2.58 µM, the TGI (NCI-H522 lung) was 14.2 µM and the GI50 (MDA-MB-231 breast) was 4.42 µM. The TGI (MDA-MB-231 breast) was greater than 100 µM, the GI50 (K-562 leukemia) was 3.92 µM and the TGI (K-562 leukemia) was greater than 100 µM. For the same compound, the GI50 (T-47D breast) was 3.37 µM, the TGI (T-47D breast) was 23 µM and the GI50 (SW-620 colon) was 5.68 µM. It also gave a TGI (SW-620 colon) greater than 77.7 µM, a GI50 (SN12C renal) of 3.81 µM and a TGI (SN12C renal) greater than 100 µM. The GI50 (OVCAR-4 ovarian) was 2.73 µM, the TGI (OVCAR-4 ovarian) was 35.8 µM and the GI50 (SK-MEL-28 melanoma) was 23.6 µM. The TGI (SK-MEL-28 melanoma) was 98 µM, the GI50 (RXF 393 renal) was 4.89 µM and the TGI (RXF 393 renal) was 24.2 µM. For the same compound, the GI50 (RPMI-8226 leukemia) was 3.97 µM, the TGI (RPMI-8226 leukemia) was 57.6 µM and the GI50 (SR leukemia) was 1.03 µM. It also gave a TGI (SR leukemia) of 36.3 µM, a GI50 (SNB-75 CNS) of 1.26 µM and a TGI (SNB-75 CNS) of 12.2 µM. It also gave a GI50 (HOP-62 NSCLC) of 2.05 µM, a TGI (HOP-62 NSCLC) of 15 µM and a GI50 (MALME-3M melanoma) of 1.66 µM. It also gave a TGI (MALME-3M melanoma) of 36.5 µM, a GI50 (OVCAR-5 ovarian) of 3.06 µM and a TGI (OVCAR-5 ovarian) greater than 85.5 µM. For the same compound, the GI50 (NCI-H460 lung) was 3.85 µM, the TGI (NCI-H460 lung) was 19.3 µM and the GI50 (NCI-H23 lung) was 4.01 µM. The TGI (NCI-H23 lung) was 33 µM, the GI50 (PC-3 prostate) was 3.42 µM and the TGI (PC-3 prostate) was greater than 100 µM. It also gave a GI50 (HT29 colon) of 5.63 µM, a TGI (HT29 colon) of 39.9 µM and a GI50 (MOLT-4 leukemia) of 3.93 µM. For the same compound, the TGI (MOLT-4 leukemia) was greater than 85.3 µM, the GI50 (M14 melanoma) was 1.75 µM and the TGI (M14 melanoma) was 9.32 µM. The GI50 (MCF7 breast) was 2.79 µM, the TGI (MCF7 breast) was 23.4 µM and the GI50 (SK-MEL-2 melanoma) was 3.61 µM. For the same compound, the TGI (SK-MEL-2 melanoma) was greater than 44.5 µM, the GI50 (786-0 renal) was 2.92 µM and the TGI (786-0 renal) was 14.7 µM. For the same compound, the GI50 (A498 renal) was 2.98 µM, the TGI (A498 renal) was greater than 35.9 µM and the GI50 (ACHN renal) was 4.96 µM. The TGI (ACHN renal) was greater than 68 µM, the GI50 (DU-145 prostate) was 2.54 µM and the TGI (DU-145 prostate) was 51.3 µM. It also gave a GI50 (HS 578T breast) of 12.5 µM, a TGI (HS 578T breast) greater than 95.7 µM and a GI50 (HCT-15 colon) of 7.6 µM. It also gave a TGI (HCT-15 colon) greater than 100 µM, a GI50 (BT-549 breast) of 2.55 µM and a TGI (BT-549 breast) of 29.3 µM. For the same compound, the GI50 (SF-268 CNS) was 4.1 µM, the TGI (SF-268 CNS) was greater than 100 µM and the GI50 (OVCAR-8 ovarian) was 4.72 µM. The TGI (OVCAR-8 ovarian) was greater than 100 µM, the GI50 (U251 CNS) was 13.3 µM and the TGI (U251 CNS) was greater than 100 µM. For the same compound, the GI50 (HOP-92 NSCLC) was 1.4 µM, the TGI (HOP-92 NSCLC) was greater than 48.3 µM and the GI50 (SNB-19 CNS) was 27 µM. The TGI (SNB-19 CNS) was greater than 100 µM, the GI50 (HCC-2998 colon) was 2.52 µM and the TGI (HCC-2998 colon) was 23.6 µM. It also gave a GI50 (LOX IMVI melanoma) of 0.574 µM, a TGI (LOX IMVI melanoma) greater than 37 µM and a GI50 (EKVX NSCLC) of 5.36 µM. It also gave a TGI (EKVX NSCLC) greater than 100 µM, a GI50 (OVCAR-3 ovarian) of 2.08 µM and a TGI (OVCAR-3 ovarian) of 6.19 µM. The GI50 (TK-10 renal) was 1.91 µM, the TGI (TK-10 renal) was 16.4 µM and the GI50 (COLO 205 colon) was 4.73 µM. For the same compound, the TGI (COLO 205 colon) was 14.6 µM, the GI50 (HL-60(TB) leukemia) was 5.27 µM and the TGI (HL-60(TB) leukemia) was greater than 57.6 µM. It also gave a GI50 (SK-OV-3 ovarian) of 1.56 µM, a TGI (SK-OV-3 ovarian) of 9.94 µM and a GI50 (NCI/ADR-RES ovarian) of 5.41 µM. For the same compound, the TGI (NCI/ADR-RES ovarian) was greater than 100 µM, the GI50 (SF-539 CNS) was 2.6 µM and the TGI (SF-539 CNS) was 18.4 µM. It also gave a GI50 (KM12 colon) of 3.76 µM, a TGI (KM12 colon) of 22 µM and a GI50 (UACC-257 melanoma) of 8.61 µM. The TGI (UACC-257 melanoma) was greater than 100 µM, the GI50 (NCI-H226 lung) was 5.47 µM and the TGI (NCI-H226 lung) was greater than 100 µM. For the same compound, the GI50 (CAKI-1 renal) was 2.4 µM, the TGI (CAKI-1 renal) was greater than 47.5 µM and the GI50 (SF-295 CNS) was 0.906 µM. For the same compound, the TGI (SF-295 CNS) was greater than 25 µM, the GI50 (UACC-62 melanoma) was 2.81 µM and the TGI (UACC-62 melanoma) was 16 µM. It also gave a GI50 (MDA-MB-435) of 3.41 µM and a TGI (MDA-MB-435) of 46.9 µM.

With O=C1CCCC/C1=C(\Br)I the TGI (HCT-116 colon) was 25 µM, the TGI (CCRF-CEM leukemia) was 5.68 µM and the TGI (A549 NSCLC) was 58.6 µM. It also gave a TGI (SK-MEL-5 melanoma) of 42.1 µM, a TGI (IGROV1 ovarian) of 40.8 µM and a TGI (UO-31 renal) of 31.5 µM. The TGI (NCI-H522 lung) was 3.48 µM, the TGI (MDA-MB-231 breast) was 32.5 µM and the TGI (K-562 leukemia) was 10.3 µM. For the same compound, the TGI (T-47D breast) was 15.2 µM, the TGI (SW-620 colon) was 10.4 µM and the TGI (SN12C renal) was 30.8 µM. The TGI (OVCAR-4 ovarian) was 29.3 µM, the TGI (SK-MEL-28 melanoma) was 29.9 µM and the TGI (RXF 393 renal) was 29.5 µM. It also gave a TGI (RPMI-8226 leukemia) of 16.5 µM, a TGI (SR leukemia) of 9.49 µM and a TGI (SNB-75 CNS) of 34.8 µM. For the same compound, the TGI (HOP-62 NSCLC) was 36.7 µM, the TGI (MALME-3M melanoma) was 12.1 µM and the TGI (OVCAR-5 ovarian) was 33.2 µM. The TGI (NCI-H460 lung) was 33 µM, the TGI (NCI-H23 lung) was 16.8 µM and the TGI (PC-3 prostate) was 32.9 µM. For the same compound, the TGI (HT29 colon) was 27.4 µM, the TGI (MOLT-4 leukemia) was 7.17 µM and the TGI (M14 melanoma) was 20.1 µM. It also gave a TGI (MCF7 breast) of 32.9 µM, a TGI (SK-MEL-2 melanoma) of 38.6 µM and a TGI (786-0 renal) of 37.5 µM. It also gave a TGI (A498 renal) of 35.7 µM, a TGI (ACHN renal) of 29.6 µM and a TGI (DU-145 prostate) of 26 µM. For the same compound, the TGI (HS 578T breast) was greater than 100 µM, the TGI (HCT-15 colon) was 7.97 µM and the TGI (BT-549 breast) was 31.6 µM. It also gave a TGI (SF-268 CNS) of 14.8 µM, a TGI (OVCAR-8 ovarian) of 28.1 µM and a TGI (U251 CNS) of 34 µM. The TGI (HOP-92 NSCLC) was 31.8 µM, the TGI (SNB-19 CNS) was 47.5 µM and the TGI (HCC-2998 colon) was 9.79 µM. The TGI (LOX IMVI melanoma) was 32.4 µM, the TGI (EKVX NSCLC) was 34.4 µM and the TGI (OVCAR-3 ovarian) was 32.1 µM. The TGI (TK-10 renal) was 18.4 µM, the TGI (COLO 205 colon) was 28.8 µM and the TGI (HL-60(TB) leukemia) was 5.71 µM. The TGI (SK-OV-3 ovarian) was 49.2 µM, the TGI (NCI/ADR-RES ovarian) was 41.1 µM and the TGI (SF-539 CNS) was 41.2 µM. For the same compound, the TGI (KM12 colon) was 34 µM, the TGI (UACC-257 melanoma) was 30.5 µM and the TGI (NCI-H226 lung) was 43.7 µM. The TGI (CAKI-1 renal) was 24.9 µM, the TGI (SF-295 CNS) was 37.7 µM and the TGI (UACC-62 melanoma) was 38.3 µM. The TGI (MDA-MB-435) was 29.4 µM.
